# Assay: phase 1/2 study in relapsed/refractory ITP (NCT03395210), safety
# Excerpt: The Safety Population was used for all safety analyses.
# Pre-existing conditions that worsened during a study were reported as AEs.
# Safety was graded per NCI CTCAE, version 4.0.
# [1] = any cause, unrelated to rilzabrutinib treatment, patients
# [2] = baseline through end of treatment
smiles,measurement,setting,value
"CC(C)(C=C(C#N)C(=O)N1CCC[C@@H](n2nc(-c3ccc(Oc4ccccc4)cc3F)c3c(N)ncnc32)C1)N1CCN(C2COC2)CC1 (mixture of isomers) [rilzabrutinib, (R)-2-[3-[4-amino-3-(2-fluoro-4-phenoxy-phenyl)pyrazolo[3,4-d]pyrimidin-1-yl]piperidine-1-carbonyl]-4-methyl-4-[4-(oxetan-3-yl)piperazin-1-yl]pent-2-enenitrile]",Abdominal pain,"TEAE any cause, grade 2",2 (3) number of patients (percent)
same,Abnormal dreams,"TEAE any cause, grade 2",— (represents zero events)
same,Akathisia,"TEAE any cause, grade 2",— (represents zero events)
same,Alopecia,"TEAE any cause, grade 2",— (represents zero events)
same,Anemia,"TEAE any cause, grade 2",2 (3) number of patients (percent)
same,Any TEAE,"TEAE any cause, grade 2",30 (50) number of patients (percent)
same,Arthralgia,"TEAE any cause, grade 2",2 (3) number of patients (percent)
same,Arthropod bite,"TEAE any cause, grade 2",— (represents zero events)
same,Back pain,"TEAE any cause, grade 2",1 (2) number of patients (percent)
same,Conjunctival hemorrhage,"TEAE any cause, grade 2",— (represents zero events)
same,Contusion,"TEAE any cause, grade 2",3 (5) number of patients (percent)
same,Costochondritis,"TEAE any cause, grade 2",— (represents zero events)
same,Cough,"TEAE any cause, grade 2",— (represents zero events)
same,Decreased appetite,"TEAE any cause, grade 2",— (represents zero events)
same,Defecation urgency,"TEAE any cause, grade 2",1 (2) number of patients (percent)
same,Diarrhea,"TEAE any cause, grade 2",3 (5) number of patients (percent)
same,Dizziness,"TEAE any cause, grade 2",— (represents zero events)
same,Dyspepsia,"TEAE any cause, grade 2",1 (2) number of patients (percent)
same,Dyspnea,"TEAE any cause, grade 2",— (represents zero events)
same,Dyspnea exertional,"TEAE any cause, grade 2",— (represents zero events)
same,Edema,"TEAE any cause, grade 2",— (represents zero events)
same,Epigastric discomfort,"TEAE any cause, grade 2",1 (2) number of patients (percent)
same,Epistaxis,"TEAE any cause, grade 2",— (represents zero events)
same,Erysipelas,"TEAE any cause, grade 2",1 (2) number of patients (percent)
same,Fatigue,"TEAE any cause, grade 2",2 (3) number of patients (percent)
same,Frequent bowel movements,"TEAE any cause, grade 2",1 (2) number of patients (percent)
same,Headache,"TEAE any cause, grade 2",— (represents zero events)
same,Heavy menstrual bleeding,"TEAE any cause, grade 2",1 (2) number of patients (percent)
same,Hypoesthesia,"TEAE any cause, grade 2",1 (2) number of patients (percent)
same,Hypophosphatemia,"TEAE any cause, grade 2",2 (3) number of patients (percent)
same,I lot flush,"TEAE any cause, grade 2",1 (2) number of patients (percent)
same,Ilypokalemia,"TEAE any cause, grade 2",— (represents zero events)
same,Increased white blood cell count,"TEAE any cause, grade 2",1 (2) number of patients (percent)
same,Maculo-papular rash,"TEAE any cause, grade 2",— (represents zero events)
same,Malaise,"TEAE any cause, grade 2",— (represents zero events)
same,Micturition urgency,"TEAE any cause, grade 2",— (represents zero events)
same,Muscle spasms,"TEAE any cause, grade 2",— (represents zero events)
same,Myalgia,"TEAE any cause, grade 2",— (represents zero events)
same,Nasal congestion,"TEAE any cause, grade 2",1 (2) number of patients (percent)
same,Nasopharyngitis,"TEAE any cause, grade 2",1 (2) number of patients (percent)
same,Nausea,"TEAE any cause, grade 2",3 (5) number of patients (percent)
same,Peripheral swelling,"TEAE any cause, grade 2",— (represents zero events)
same,Petechiae,"TEAE any cause, grade 2",— (represents zero events)
same,Pruritus,"TEAE any cause, grade 2",1 (2) number of patients (percent)
same,Purpura,"TEAE any cause, grade 2",— (represents zero events)
same,Rash,"TEAE any cause, grade 2",2 (3) number of patients (percent)
same,Thrombocytopena,"TEAE any cause, grade 2",— (represents zero events)
same,Upper abdominal pain,"TEAE any cause, grade 2",1 (2) number of patients (percent)
same,Upper respiratory tract infection,"TEAE any cause, grade 2",1 (2) number of patients (percent)
same,Urinary tract infection,"TEAE any cause, grade 2",1 (2) number of patients (percent)
same,Vomiting,"TEAE any cause, grade 2",1 (2) number of patients (percent)
same,Abdominal discomfort,"TEAE any cause, grade 3/4",— (represents zero events)
same,Abdominal distension,"TEAE any cause, grade 3/4",— (represents zero events)
same,Abdominal pain,"TEAE any cause, grade 3/4",— (represents zero events)
same,Abnormal dreams,"TEAE any cause, grade 3/4",— (represents zero events)
same,Akathisia,"TEAE any cause, grade 3/4",— (represents zero events)
same,Alopecia,"TEAE any cause, grade 3/4",— (represents zero events)
same,Anemia,"TEAE any cause, grade 3/4",2 (3) number of patients (percent)
same,Arthralgia,"TEAE any cause, grade 3/4",— (represents zero events)
same,Arthropod bite,"TEAE any cause, grade 3/4",— (represents zero events)
same,Back pain,"TEAE any cause, grade 3/4",— (represents zero events)
same,Conjunctival hemorrhage,"TEAE any cause, grade 3/4",— (represents zero events)
same,Contusion,"TEAE any cause, grade 3/4",1 (2) number of patients (percent)
same,Costochondritis,"TEAE any cause, grade 3/4",— (represents zero events)
same,Cough,"TEAE any cause, grade 3/4",— (represents zero events)
same,Decreased appetite,"TEAE any cause, grade 3/4",— (represents zero events)
same,Defecation urgency,"TEAE any cause, grade 3/4",— (represents zero events)
same,Diarrhea,"TEAE any cause, grade 3/4",— (represents zero events)
same,Dizziness,"TEAE any cause, grade 3/4",— (represents zero events)
same,Dyspepsia,"TEAE any cause, grade 3/4",— (represents zero events)
same,Dyspnea,"TEAE any cause, grade 3/4",— (represents zero events)
same,Dyspnea exertional,"TEAE any cause, grade 3/4",— (represents zero events)
same,Edema,"TEAE any cause, grade 3/4",— (represents zero events)
same,Epigastric discomfort,"TEAE any cause, grade 3/4",— (represents zero events)
same,Epistaxis,"TEAE any cause, grade 3/4",— (represents zero events)
same,Erysipelas,"TEAE any cause, grade 3/4",— (represents zero events)
same,Fatigue,"TEAE any cause, grade 3/4",— (represents zero events)
same,Frequent bowel movements,"TEAE any cause, grade 3/4",— (represents zero events)
same,Headache,"TEAE any cause, grade 3/4",— (represents zero events)
same,Heavy menstrual bleeding,"TEAE any cause, grade 3/4",— (represents zero events)
same,Hypoesthesia,"TEAE any cause, grade 3/4",— (represents zero events)
same,Hypophosphatemia,"TEAE any cause, grade 3/4",— (represents zero events)
same,I lot flush,"TEAE any cause, grade 3/4",— (represents zero events)
same,Ilypokalemia,"TEAE any cause, grade 3/4",— (represents zero events)
same,Increased white blood cell count,"TEAE any cause, grade 3/4",— (represents zero events)
same,Maculo-papular rash,"TEAE any cause, grade 3/4",— (represents zero events)
same,Malaise,"TEAE any cause, grade 3/4",— (represents zero events)
same,Micturition urgency,"TEAE any cause, grade 3/4",— (represents zero events)
same,Muscle spasms,"TEAE any cause, grade 3/4",— (represents zero events)
same,Myalgia,"TEAE any cause, grade 3/4",— (represents zero events)
same,Nasal congestion,"TEAE any cause, grade 3/4",— (represents zero events)
same,Nasopharyngitis,"TEAE any cause, grade 3/4",— (represents zero events)
same,Nausea,"TEAE any cause, grade 3/4",— (represents zero events)
same,Peripheral swelling,"TEAE any cause, grade 3/4",— (represents zero events)
same,Petechiae,"TEAE any cause, grade 3/4",— (represents zero events)
same,Pruritus,"TEAE any cause, grade 3/4",— (represents zero events)
same,Purpura,"TEAE any cause, grade 3/4",— (represents zero events)
same,Rash,"TEAE any cause, grade 3/4",— (represents zero events)
same,Thrombocytopena,"TEAE any cause, grade 3/4",2 (3) number of patients (percent)
same,Upper abdominal pain,"TEAE any cause, grade 3/4",— (represents zero events)
same,Upper respiratory tract infection,"TEAE any cause, grade 3/4",— (represents zero events)
same,Urinary tract infection,"TEAE any cause, grade 3/4",— (represents zero events)
same,Vomiting,"TEAE any cause, grade 3/4",— (represents zero events)
same,Rescue medication use,all patients,seven
same,grade 3 anemia,"any cause, unrelated to rilzabrutinib treatment",2 n
same,grade 3 abnormal alanine aminotransferase levels,[1],one each
same,grade 3 contusion,[1],one each
same,grade 3 gastrointestinal hemorrhage,[1],one each
same,grade 3 hematoma,[1],one each
same,grade 3 immune thrombocytopenia,[1],one each
same,grade 3 myelofibrosis,[1],one each
same,grade 3 thrombocytopenia,[1],one each
same,grade 4 Evans syndrome,[1],one each
same,grade 4 thrombocytopenia,[1],one each
same,"≥1 treatment-related, treatment-emergent adverse event",any grade,52%
same,"grade 3, 4, or 5 bleeding events (IBLS Bleeding Scale)","baseline or week 24/EOS, n=34","no grade 3, 4, or 5 bleeding events"
same,IBLS bleeding scale scores within each domain,[2],no increase in bleeding from baseline through the end of treatment
same,"IBLS bleeding scale scores, skin and oral sites",[2],improved at skin and oral sites
